Experimental data from patent US9205130B2, “Orally administrable pharmaceutical pellet of epidermal growth factor” (CENTRO DE INGENIERIA GENETICA Y BIOTECNOLOGIA, priority 2010, dated 2015).

Tested on: 3T3 A31 cells
Experiment: Biological activity: induction of proliferation of 3T3 A31 cells, crystal violet
Assay type: cell-based, mouse
Details: before being formulated in form of capsule
Method: The activity of epidermal growth factor in capsules of example 1 packaged in blisters and stored at temperatures of 5±3° C. were tested. This biological test is based on the capacity of the epidermal growth factor human recombinant (EGF Hu-r) to induce the proliferation of cell lines of mouse embryos of 3T3/A3 which are extremely sensitive to contact inhibition cell division.
For determining the capability of induction of cell proliferation of EGF and its duration, the method comprises the quantification of the absorption of colorant crystal violet by the living cells 3T3 A31.
The preparation of samples of EGF comprises the addition of 100 ml of phosphate saline buffer (PBS1×) to the content of 10 capsules of Example 1, maintaining agitation for 15 minutes. The resultant suspension was centrifuged for 5 minutes at 9000 rpm and the aqueous solution was collected.
Cells 3T3 A31 in 96-plates at a concentration of 1.5×10^5 cells/mL were sown. These plates were incubated at 37° C., 5% CO2 and 95% humidity for 24 hours.
After completing the incubation time, cells were washed twice with 100 μl of PBS1× and then 100 μl of DMEM 1× without fetal bovine serum (SFB) was added to the medium and plates were incubated at 37° C., 5% CO2 and 95% humidity for another 24 hours. […]

epidermal growth factor [epidermal growth factor human recombinant, before being formulated in form of capsule]
Reference biological activity of EGF: 2×10^6 UI/mg
